The values below come from article PMC6371759 (Chemical Science, 2018).

A word on the Kd: it is the concentration at which binding is half-saturated. Lower therefore signals tighter binding.

The assay deals with human serum albumin (HSA) (Homo sapiens, UniProt P02768). Nature of the assay: tryptophan fluorescence quenching. It counts as binding.
Sequence of human serum albumin (HSA) (P02768 25-609): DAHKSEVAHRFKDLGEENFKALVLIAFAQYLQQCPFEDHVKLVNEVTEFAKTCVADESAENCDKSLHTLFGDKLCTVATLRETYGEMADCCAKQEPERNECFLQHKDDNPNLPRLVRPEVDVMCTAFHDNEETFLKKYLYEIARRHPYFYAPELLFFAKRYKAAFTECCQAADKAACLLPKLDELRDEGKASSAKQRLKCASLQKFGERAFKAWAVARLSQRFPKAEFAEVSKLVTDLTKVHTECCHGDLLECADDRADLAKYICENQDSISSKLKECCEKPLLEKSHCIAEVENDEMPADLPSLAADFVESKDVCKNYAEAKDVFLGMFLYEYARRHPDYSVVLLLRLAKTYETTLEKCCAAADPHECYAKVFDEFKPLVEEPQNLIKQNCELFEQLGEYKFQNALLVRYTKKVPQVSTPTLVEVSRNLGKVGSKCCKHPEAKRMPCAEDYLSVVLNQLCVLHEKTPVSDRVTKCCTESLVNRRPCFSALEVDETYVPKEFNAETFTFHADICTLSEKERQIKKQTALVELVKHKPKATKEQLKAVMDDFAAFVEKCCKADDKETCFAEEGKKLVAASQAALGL

The molecule `C[C@]12CC[C@H]3[C@@H](CCC4=CC(=O)CC[C@@]43C)[C@@H]1CC[C@@H]2O` [testosterone] had a Kd of 363 ± 83 µM.
